For data set [1], the target named is T1, metabotropic glutamate receptors mGluR2 (Rattus norvegicus, UniProt P31421).
T1 construct: expressed in transfected cells
As to the kind of experiment: Effects of test compounds on cAMP accumulation (antagonism of glutamic acid suppression of Forskolin-stimulated cAMP) in CHO cells expressing mGluR2. Format: cell-based. As to conditions: CHO cells stably expressing mGluR2; 50% inhibition of suppression by 30 μM glutamic acid of cAMP increase by 10^-5 M Forskolin; cAMP EIA kit. The method, then: Experimental Example (Effects of Test Compounds on cAMP Accumulation)
CHO cells stably expressing metabotropic glutamate receptors mGluR2 were seeded in a 96-well plate in the ratio of 1.26×10^4 cells/well/0.32 cm^2/150 μl in Dalbeco-modified Eagle medium [1% proline, 50 units/ml penicillin, 50 μg/ml streptomycin, 2 mM L-glutamine (added when used)] containing 10% dialyzed fetal bovine serum, and were cultured for 2 days at 37° C. under an atmosphere of 5% CO2. Subsequently, the medium was replaced with an L-glutamine free medium. Four hours later, the supernatant liquid was aspirated. […] A study was carried out for the antagonistic effects of the test compounds on the Forskolin stimulation cAMP accumulation quantity suppression [for control, the conditions were set with no addition of the compounds (Tanabe et al., Neuron, 8, 169-179 (1992))]. The reactions were quenched by adding 100 μl of ice-cooled ethanol, the entire quantity of the supernatant liquid was collected in a separate plate, and was subsequently dried up at normal temperature with an evaporator, followed by preservation at −20° C. In the dried-up samples, the quantity of cAMP was measured using a cAMP EIA kit (from the Amasham company). The control value was subtracted from each cAMP quantity. […]

Each structure is given as a SMILES string.

T1 sequence (P31421 19-872): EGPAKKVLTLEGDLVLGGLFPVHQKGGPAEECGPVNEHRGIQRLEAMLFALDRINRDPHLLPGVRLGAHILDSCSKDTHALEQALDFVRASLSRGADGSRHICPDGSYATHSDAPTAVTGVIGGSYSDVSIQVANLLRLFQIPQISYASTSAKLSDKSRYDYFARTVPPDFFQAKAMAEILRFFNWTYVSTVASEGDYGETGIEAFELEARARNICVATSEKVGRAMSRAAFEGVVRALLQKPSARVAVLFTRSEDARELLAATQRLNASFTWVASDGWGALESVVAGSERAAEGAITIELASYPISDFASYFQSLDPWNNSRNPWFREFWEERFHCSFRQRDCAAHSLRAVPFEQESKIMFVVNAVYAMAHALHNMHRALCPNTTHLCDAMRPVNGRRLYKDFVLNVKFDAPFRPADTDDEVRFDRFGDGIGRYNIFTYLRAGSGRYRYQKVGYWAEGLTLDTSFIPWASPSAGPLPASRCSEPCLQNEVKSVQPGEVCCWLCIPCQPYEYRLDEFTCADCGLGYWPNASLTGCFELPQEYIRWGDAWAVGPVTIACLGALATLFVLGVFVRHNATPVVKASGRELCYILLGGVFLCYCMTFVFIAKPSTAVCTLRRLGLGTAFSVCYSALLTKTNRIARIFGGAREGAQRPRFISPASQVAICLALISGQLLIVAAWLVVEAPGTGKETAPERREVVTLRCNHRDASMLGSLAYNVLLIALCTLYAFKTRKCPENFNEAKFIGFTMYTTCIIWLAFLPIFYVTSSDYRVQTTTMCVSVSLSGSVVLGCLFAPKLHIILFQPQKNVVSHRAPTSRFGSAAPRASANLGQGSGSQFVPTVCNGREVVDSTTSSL

With `N[C@@]1(C(=O)O)C=C[C@@H]2[C@H]1[C@@]2(F)C(=O)O` [Example 7, (1R,2S,5R,6R)-2-amino-6-fluoro-bicyclo[3.1.0]hex-3-ene-2,6-dicarboxylic acid], the melting point was > 174 °C (dec.).
Consider `N[C@@]1(C(=O)O)[C@H](O)C[C@@H]2[C@H]1[C@@]2(F)C(=O)O` [Example 8, (1R,2R,3R,5R,6R)-2-amino-6-fluoro-3-hydroxy-bicyclo[3.1.0]hexane-2,6-dicarboxylic acid], for which the melting point is > 172 °C (dec.). Further, in data set [1], the IC50 was 476 nM.

Broadly, the melting point is the temperature, or range, at which the solid turns liquid. The term IC50 denotes the point on the concentration scale where inhibition reaches its midpoint. Read a low IC50 as higher potency.

(Values after patent US6770676B2, “Dicarboxylic acid derivatives” (Taisho Pharmaceutical Co., Ltd., priority 2000, dated 2004).)
